Measured values: PMC12526022, “Synthesis of First Copper Metal Complex of C=C Extended Curcuminoid Analogue: Structure, β-Cyclodextrin Association, and Biological Properties” (Molecules, 2025)

Key:
[1] = biological target: T1, yeast α-glucosidase (Saccharomyces cerevisiae, UniProt P53341); assay: Inhibition of yeast α-glucosidase (p-nitrophenyl-α-D-glucopyranoside substrate, OD 405 nm); assay type: biochemical; conditions: for D.O. 405 nm / Inhibition (%): mean ± SEM; for IC50: mean ± standard error of the mean, n = 3-5, read-out: Yeast α-glucosidase inhibition, half-maximal inhibitory concentration (IC50)
T1 construct: purchased Sigma Aldrich G5003-100UN
Protocol: The inhibition of α-glucosidase was evaluated using a previously adapted method. Briefly, a solution (25 µL) of tested samples in DMSO-H2O 1:1 was added to 150 µL of phosphate buffer (PBS, 67 mM, pH 6.8) and incubated at 37 °C for 10 min with 25 µL of reduced glutatione (3 mM in PBS) and 25 µL of α-glucosidase type I solution (0.2 U/mL in PBS, CAS G5003-100UN) (Sigma Aldrich, Toluca, Estado de México, Mexico). Subsequently, 25 µL of the substrate solution (23.2 mM p-nitrophenyl-α-D-glucopyranoside, CAS N1377-1G, in PBS) (Sigma Aldrich, Toluca, Estado de México, Mexico) was added, and the mixture was incubated at 37 °C for 15 min under shaking. The reaction mixture was stopped by the addition of a […] 1M solution (50 µL), followed by agitation for 5 min. […] The percentage of inhibition was calculated according to the following equation:Inhibition (%) = [(Acontrol − Asample)/Acontrol] × 100 where A is the absorbance at 405 nm of the sample and the control.
Table S5. Inhibition of yeast α-glucosidase. Determination of half-maximal inhibitory concentration […]
Values represent the mean of three to five independent experiments ± standard error of the mean.
Data were examined by analysis of variance (ANOVA) followed by Dunnett's test to determine groups with significant differences. Values of p ≤0.05 (*) and p ≤ 0.01 (**) were considered significant differences from the control.

[2] = tested on: PC-3 prostate cancer cells; assay: Sulforhodamine B antiproliferative assay, PC-3; assay type: cell-based; conditions: PC-3, 10 µM, vehicle DMSO, 48 h, NA: no activity
Protocol: (§1) Antiproliferative activity was evaluated by Sulforhodamine B assay against colon cancer (HCT-15), breast cancer (MCF-7), leukaemia ([…]), central nervous system glial (U-251), and prostate cancer (PC-3) cell lines, which the National Cancer Institute supplied. The cell lines were cultured in RPMI-1640 medium supplemented with 10% fetal bovine serum, 2 mM L-glutamine, […] penicillin G, 100 µg/mL streptomycin sulfate, and 0.25 µg/mL amphotericin B Gibco (Thermo Fisher Scientific, Grand Island, NY, USA). They were incubated at 37 °C in an atmosphere of 5% CO2 and 95% humidity. For the assay, cells were suspended in a 0.1% trypsin-EDTA solution (Gibco). Cell viability was counted using a hematocytometer and diluted with medium to achieve the following densities: 5 × 10^4 cells/mL (SKLU-1, K562) and 7.5 × 10^4 cells/mL (U251, PC-3). […]
(§2) After 24 h, the cells were treated with 100 µL of the compounds to be evaluated, previously dissolved in RPMI-1640 medium and 1% DMSO, and then incubated for 48 h at 37 °C in a 5% CO2 atmosphere. […]
(§3) After 48 h, the adherent cells were fixed by adding 50 µL of a cold 50% (m/vol) […] solution and incubated at 4 °C for 60 min. […] The optical density of the treated samples was determined in a Bio Kinetics microplate reader at a wavelength of 515 nm (Synergy HT, BioTek, Winooski, VT, USA). […]

[3] = tested on: COS-7 monkey kidney fibroblast; assay: Sulforhodamine B assay, COS7 healthy cells; assay type: cell-based; conditions: 10 µM, vehicle DMSO, 48 h
[4] = tested on: MCF-7 breast cancer cells; assay: Sulforhodamine B antiproliferative assay, MCF-7; assay type: cell-based; conditions: MCF-7, 10 µM, vehicle DMSO, 48 h, NA: no activity
Protocol: as §1, §2, §3

[5] = tested on: HCT-15 colon cancer cells; assay: Sulforhodamine B antiproliferative assay, HCT-15; assay type: cell-based; conditions: HCT-15, 10 µM, vehicle DMSO, 48 h, NA: no activity
Protocol: as §1, §2, §3

[6] = tested on: SKLU-1 lung cancer cells; assay: Sulforhodamine B antiproliferative assay, SKLU-1; assay type: cell-based; conditions: SKLU-1, 10 µM, vehicle DMSO, 48 h, NA: no activity
Protocol: as §1, §2, §3

[7] = Solubility in polar solvents (observation); assay type: physicochemical
[8] = biological target: α-glucosidase; parameters: method as in PMID 16387392, doi:10.1016/j.kjs.2024.100312; conditions: literature values for comparison; read-out: α-glucosidase inhibitory activity IC50; cited from earlier work

T1 sequence (P53341 whole entry): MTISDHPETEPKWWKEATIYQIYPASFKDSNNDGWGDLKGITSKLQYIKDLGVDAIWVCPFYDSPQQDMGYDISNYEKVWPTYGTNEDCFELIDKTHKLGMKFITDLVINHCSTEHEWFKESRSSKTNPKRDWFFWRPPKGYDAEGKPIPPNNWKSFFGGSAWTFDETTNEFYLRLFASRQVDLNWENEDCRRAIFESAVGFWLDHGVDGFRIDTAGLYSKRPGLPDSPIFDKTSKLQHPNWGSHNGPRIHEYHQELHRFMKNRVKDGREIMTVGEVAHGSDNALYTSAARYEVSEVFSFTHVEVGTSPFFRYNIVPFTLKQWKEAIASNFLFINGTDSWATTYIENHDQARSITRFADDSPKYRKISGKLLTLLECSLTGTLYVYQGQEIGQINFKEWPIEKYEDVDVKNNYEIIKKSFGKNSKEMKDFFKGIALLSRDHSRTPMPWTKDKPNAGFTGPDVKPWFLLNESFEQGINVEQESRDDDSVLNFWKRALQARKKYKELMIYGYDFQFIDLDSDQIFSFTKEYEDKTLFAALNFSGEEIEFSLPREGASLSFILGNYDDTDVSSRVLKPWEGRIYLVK

O=c1c(O)c(-c2ccc(O)c(O)c2)oc2cc(O)cc(O)c12 [Quercetin, quercetin, reference compound]
inhibition at 5.62 µM [1]: 6.31 ± 2.5% | inhibition at 10 µM [1]: 16.2 ± 2.95% | inhibition at 17.78 µM [1]: 36.9 ± 1.16% | inhibition at 31.62 µM [1]: 59.1 ± 0.88% | inhibition at 56.23 µM [1]: 72.2 ± 1.55% | D.O. 405 nm ([1]; 5.62 µM): 1.276±0.063 | D.O. 405 nm ([1]; 10 µM): 1.142±0.064 | D.O. 405 nm ([1]; 17.78 µM): 0.861±0.044 | D.O. 405 nm ([1]; 31.62 µM): 0.556±0.019 | D.O. 405 nm ([1]; 56.23 µM): 0.376±0.016

O=C(C=CC=Cc1ccccc1)C=C([O-])C=CC=Cc1ccccc1.O=C(C=CC=Cc1ccccc1)C=C([O-])C=CC=Cc1ccccc1.[Cu+2] [Compound 3]
Cellular growth inhibition (%) [2]: 1.95% | Cellular growth inhibition (%) [3]: 15.49% | Cellular growth inhibition (%) [4]: 12.35% | Cellular growth inhibition (%) [5]: 12.04% | Cellular growth inhibition (%) [6]: 0.58% | α-glucosidase inhibitory activity (in words) [1]: no inhibition activity at high concentrations | D.O. 405 nm ([1]; 1 µM): 1.314±0.041 | Inhibition (%) ([1]; 1 µM): -2.68±1.55% | D.O. 405 nm ([1]; 10 µM): 1.226±0.025 | Inhibition (%) ([1]; 10 µM): 4.11±1.43% | D.O. 405 nm ([1]; 100 µM): 1.071±0.044 | Inhibition (%) ([1]; 100 µM): 16.19 ± 3.18% | IC50 [1]: > 100 µM | Solubility in polar solvents (in words) [7]: poor solubility

O=C(/C=C/c1ccc(O)cc1)CC(=O)/C=C/c1ccc(O)cc1 [bisdemetoxicurcumin]
IC50 [8]: 90.6 µM

O=C(/C=C(O)/C=C/C=C/c1ccccc1)/C=C/C=C/c1ccccc1 [Compound 2]
inhibition at 10 µM ([2]; read-out: Cellular growth inhibition (%)): 11.8% | Cellular growth inhibition (%) [3]: 7.35% | inhibition at 10 µM ([4]; Homo sapiens, MCF7, read-out: Cellular growth inhibition (%)): 11.5% | inhibition at 10 µM ([5]; Homo sapiens, read-out: Cellular growth inhibition (%)): 15.9% | inhibition at 10 µM ([6]; Homo sapiens, SK-LU-1, read-out: Cellular growth inhibition (%)): 7.45% | inhibition at 10 µM [1]: 7.61 ± 2.8% | inhibition at 17.78 µM [1]: 16.9 ± 3.75% | inhibition at 31.62 µM [1]: 31.6 ± 6.86% | inhibition at 56.23 µM [1]: 66.3 ± 10.2% | inhibition at 100 µM [1]: 86.9 ± 7.53% | D.O. 405 nm ([1]; 10 µM): 1.205±0.051 | D.O. 405 nm ([1]; 17.78 µM): 1.084±0.067 | D.O. 405 nm ([1]; 31.62 µM): 0.894±0.105 | D.O. 405 nm ([1]; 56.23 µM): 0.446±0.147 | D.O. 405 nm ([1]; 100 µM): 0.174±0.105 | IC50 [1]: 45.6 µM | Solubility in polar solvents (in words) [7]: poor solubility

COc1cc(/C=C/C(O)=C/C(=O)/C=C/c2ccc(O)cc2)ccc1O [demetoxicurcumin]
IC50 [8]: 82.4 µM

OC[C@H]1O[C@@H]2O[C@H]3[C@H](O)[C@@H](O)[C@@H](O[C@H]4[C@H](O)[C@@H](O)[C@@H](O[C@H]5[C@H](O)[C@@H](O)[C@@H](O[C@H]6[C@H](O)[C@@H](O)[C@@H](O[C@H]7[C@H](O)[C@@H](O)[C@@H](O[C@H]8[C@H](O)[C@@H](O)[C@@H](O[C@H]1[C@H](O)[C@H]2O)O[C@@H]8CO)O[C@@H]7CO)O[C@@H]6CO)O[C@@H]5CO)O[C@@H]4CO)O[C@@H]3CO [BCD, β-cyclodextrin]
inhibition at 1 µM [1]: 0.2 ± 3.02% | inhibition at 10 µM [1]: 1.11 ± 4.12% | inhibition at 100 µM [1]: 2.31 ± 3.94% | D.O. 405 nm ([1]; 1 µM): 1.275±0.028 | D.O. 405 nm ([1]; 10 µM): 1.261±0.022 | D.O. 405 nm ([1]; 100 µM): 1.246±0.019
